The record followed here is patent US10125168B2, “Synthetic peptide for adjusting balance between presence of type 1 TNF receptor and type 2 TNF receptor and use thereof” (TOAGOSEI CO., LTD., priority 2012, dated 2018).

The test system of assay [1] is TNF-R1. The experiment in a line: Immunofluorescence / flow cytometry of TNF-R1 presence in human SK-N-SH cells supplied with peptide. The format is cell-based. Conditions: human cell line SK-N-SH, retinoic acid induction, peptide 5 μM, two days; fluorescence intensity relative to control group = 1 (FIG. 2). The procedure:
The activities of the respective peptides synthesized in Example 1 above were tested with cultured cells of a human neuroblastoma cell line (SK-N-SH). The control group was supplied with no peptides. The test details are described below.
Firstly, each peptide synthesized in Example 1 above was dissolved in DMSO to prepare a stock solution having a peptide concentration of 4 mM.
The SK-N-SH cell line was then seeded in a 4 mL fraction in a culture dish of 6 cm diameter at a density of 1.5×10^5 cells/mL and incubated overnight in a general DMEM culture medium (with 10% FBS (a Hyclone product, KSD), 2 mM L-glutamine, 50 unit/mL penicillin, and 50 μg/mL streptomycin) at 37° C. in a CO2 incubator at 5% CO2. Due to a low cell density, incubation was carried on for one more days.
After incubated over two nights, the culture medium was replaced with a fresh DMEM culture medium (with 2% FBS, 20 μM retinoic acid, 2 mM L-glutamine, 50 unit/mL penicillin, and 50 μg/mL streptomycin). Incubation was carried on for five days under the same conditions to effect retinoic acid induction.
Subsequently, the culture medium was replaced with a DMEM culture medium containing a peptide (TNF-R2 upregulating peptide or TNF-R2 downregulating peptide) in an amount equivalent to 5 μM, in addition to 2% FBS, 20 μM retinoic acid, 2 mM L-glutamine, 50 unit/mL penicillin and 50 μg/mL streptomycin (also containing 5 μL of DMSO at this point). Incubation was carried on under the same conditions for two days.
The control group (group supplied with no peptide) was incubated for two days in a DMEM culture medium (with 2% FBS, 20 μM retinoic acid, 20 μM retinoic acid, 2 mM L-glutamine, 50 unit/mL penicillin, and 50 μg/mL streptomycin) supplied only with the aforementioned amount of DMSO, without any added peptide.
After completion of the incubation, cultured cells in each test group were collected and divided into certain test tubes in fractions having the same number of cells. By the immunofluorescence technique described below, the change in the balance between the presence of TNF-R1 and TNF-R2 was then assessed in each test group (group supplied with TNF-R2 upregulating peptide, group supplied with TNF-R2 downregulating peptide).
More specifically, in each test group, for the TNF-R1 measurement, an anti-TNF-R1 mouse polyclonal antibody (a Santa Cruz Biotechnology Inc. product, SC-52739) was added to the respective test tubes to a final concentration of 2×10^−3 mg/mL and incubation was carried out under ice-cold conditions for a prescribed time period. As a secondary antibody, a goat anti-mouse IgG antibody (an Invitrogen product, A10029) labeled with a fluorescent dye (Alexa® 488) was added to the test tubes to a final concentration of 4×10^−3 mg/mL and incubation was carried out under ice-cold conditions for a prescribed time period.
In the same manner as Example 2 above, the fluorescence intensities of cells were measured with a flow cytometer. For both TNF-R1 and TNF-R2, the fluorescence intensities are shown as relative values with the fluorescence intensities of TNF-R1 and TNF-R2 in the control group (group supplied with no peptide) being 1, respectively.
(Flow cytometry measures light scatter and fluorescence of single cells or particles in a stream.)

Assay [2] has as its system TNF-R1. The experiment in a line: Immunofluorescence / flow cytometry of TNF-R1 presence in mouse Neuro 2a cells supplied with peptide. The format is cell-based. Conditions: mouse cell line Neuro 2a, retinoic acid induction, peptide 5 μM, two days; fluorescence intensity relative to control group = 1 (FIG. 1). The procedure:
The activities of the peptides of Sample 1 and Sample 6 synthesized in Example 1 above were tested with cultured cells of a mouse […], neuroblastoma cell line (Neuro 2a). The control group was supplied with no peptides. The test details are described below.
Firstly, each peptide synthesized in Example 1 above was dissolved in PBS (phosphate buffered saline) to prepare a stock solution having a peptide concentration of 1 mM (with a small amount of dimethyl sulfoxide (DMSO)). […]
After completion of the incubation, cultured cells in each test group were collected and divided into certain test tubes in fractions having the same number of cells. By the immunofluorescence technique described below, the change in the balance between the presence of TNF-R1 and TNF-R2 was then assessed in each test group (group supplied with TNF-R2 upregulating peptide, group supplied with TNF-R2 downregulating peptide). […]
The fluorescence intensities of cells were measured with a flow cytometer (a Millipore system product, Guava® easyCyte 8HT). For both TNF-R1 and TNF-R2, the fluorescence intensities are shown as relative values with the fluorescence intensities of TNF-R1 and TNF-R2 in the control group (group supplied with no peptide) being 1, respectively.

On to “MGLPTVPGLLLSLVLLALLMG (listed as Mus musculus) [Sample 2, TNF-R2 upregulating peptide; mouse TNF-R1 signal peptide motif, linear, 21 amino acid residues]”, for which the “presence of TNF-R1” value in assay [1] is on record as “no significant change”.
Still for that read-out and setting: for “MAPAALWVALVFELQLWATGHT (listed as Mus musculus) [Sample 7, TNF-R2 downregulating peptide; mouse TNF-R2 signal peptide motif, linear, 22 amino acid residues]” the value was “no significant change”.
As for “MGLSTVPDLLLPLVLLELLVG (listed as Homo sapiens) [Sample 1, TNF-R2 upregulating peptide; human TNF-R1 signal peptide motif, linear, 21 amino acid residues]”, the “presence of TNF-R1” value in assay [1] and in assay [2] was “no significant change” throughout.
For “MGLSTVPGLLLPLVLRALLVD (listed as Sus scrofa) [Sample 5, TNF-R2 upregulating peptide; pig TNF-R1 signal peptide motif, linear, 21 amino acid residues]”, in assay [1], the “presence of TNF-R1” value is “no significant change”.
Turning to “MAPVAVWAALAVGLELWAAAHA (listed as Homo sapiens) [Sample 6, TNF-R2 downregulating peptide; human TNF-R2 signal peptide motif, linear, 22 amino acid residues]”, the “presence of TNF-R1” value in assay [1] and in assay [2] was “no significant change” throughout.
